# According to the supplement of paper PMC10307832:
# Experiments:
# Assay in all cases: relative viability (nuclei count vs DMSO), 5 days (fraction); higher = more cells survive
# [1] = compound: CC1CC(=O)N(C2=CN=C(N=C2N1C3CCCC3)NC4=C(C=C(C=C4)C(=O)NC5CCN(CC5)C)OC)C [NPK76-II-72-1] + CS(=O)(=O)CCNCc1ccc(-c2ccc3ncnc(Nc4ccc(OCc5cccc(F)c5)c(Cl)c4)c3c2)o1 [Lapatinib] (partner 2 µM)
# Method in brief: (§1)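 Nuclei were stained with Hoechst during a one-step fixation (final 0.05% Triton X-100, 1% formaldehyde, 1 ug/ml Hoechst) carried out 5 days after dosing, then counted on 4× images. The cells, lung cancer lines in 1536-well plates, had been dosed by pin tool the day after seeding with one drug alone or a fixed anchor-drug dose plus five library-drug doses (not always all listed) in √10 steps. Relative viability is the nuclei count in treated wells divided by that in vehicle wells, and each value is the median of duplicate plates.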
# [2] = compound: CC[C@@H]1C(=O)N(C)c2cnc(Nc3ccc(C(=O)NC4CCN(C)CC4)cc3OC)nc2N1C1CCCC1 [BI-2536] + CC(=O)c1c(C)c2cnc(Nc3ccc(N4CCNCC4)cn3)nc2n(C2CCCC2)c1=O [Palbociclib] (partner 0.5 µM)
# Method in brief: as §1
# [3] = compound: CC[C@@H]1C(=O)N(C)c2cnc(Nc3ccc(C(=O)NC4CCN(C)CC4)cc3OC)nc2N1C1CCCC1 [BI-2536] + CCNC(=O)c1noc(-c2cc(C(C)C)c(O)cc2O)c1-c1ccc(CN2CCOCC2)cc1 [Luminespib] (partner 0.01 µM)
# Method in brief: as §1
# [4] = compound: CC[C@@H]1C(=O)N(C)c2cnc(Nc3ccc(C(=O)NC4CCN(C)CC4)cc3OC)nc2N1C1CCCC1 [BI-2536] + N=C(N)NC(=N)NCCc1ccccc1 [Phenformin] (partner 250 µM)
# Method in brief: as §1
Cell Line,relative viability ([1]; first compound 0.01 µM),relative viability ([1]; first compound 0.03162 µM),relative viability ([1]; first compound 0.1 µM),relative viability ([1]; first compound 1 µM),relative viability ([2]; first compound 0.01 µM),relative viability ([2]; first compound 0.03162 µM),relative viability ([2]; first compound 0.1 µM),relative viability ([2]; first compound 0.3162 µM),relative viability ([2]; first compound 1 µM),relative viability ([3]; first compound 0.01 µM),relative viability ([3]; first compound 0.03162 µM),relative viability ([3]; first compound 0.1 µM),relative viability ([3]; first compound 0.3162 µM),relative viability ([3]; first compound 1 µM),relative viability ([4]; first compound 0.01 µM),relative viability ([4]; first compound 0.03162 µM),relative viability ([4]; first compound 0.1 µM),relative viability ([4]; first compound 0.3162 µM),relative viability ([4]; first compound 1 µM),relative viability ([1]; first compound 0.3162 µM)
H3255,0.263,0.25,0.217,0.226,0.341,0.299,0.314,0.248,0.259,0.846,1.13,0.691,0.239,0.359,0.3,0.318,0.306,0.268,0.329,
NCI-H1993,0.729,0.92,0.906,0.788,0.623,0.714,0.5,0.468,0.427,0.856,0.747,0.521,0.602,0.515,0.493,0.432,0.52,0.41,0.475,0.822
NCI-H1734,1.02,1.11,1.16,1.17,0.358,0.349,0.256,0.203,0.192,0.22,0.157,0.137,0.122,0.133,0.393,0.24,0.159,0.151,0.167,1.03
HOP-62,1.08,0.958,1.02,1.22,0.421,0.409,0.443,0.17,0.143,0.949,0.84,0.419,0.121,0.188,0.7,0.654,0.43,0.141,0.141,0.911
LOU-NH91,0.746,0.759,0.732,0.822,0.477,0.51,0.472,0.331,0.317,0.372,0.345,0.306,0.279,0.267,0.706,0.662,0.583,0.273,0.252,0.777
NCI-H2228,0.88,1.04,1.13,0.874,0.749,0.618,0.232,0.157,0.111,0.161,0.179,0.183,0.145,0.124,0.328,0.214,0.129,0.106,0.102,1.15
PC-14,0.321,0.269,0.28,0.338,0.458,0.489,0.0853,0.0424,0.0288,0.116,0.171,0.111,0.107,0.108,0.651,0.551,0.224,0.0459,0.0271,0.301
NCI-H1437,0.769,0.884,0.743,0.818,0.332,0.281,0.273,0.159,0.197,1.14,0.961,0.729,0.2,0.164,0.289,0.23,0.145,0.143,0.154,0.716
NCI-H460,0.887,0.948,1.21,0.966,0.264,0.15,0.14,0.0134,0.0152,0.0287,0.0394,0.0295,0.0298,0.0252,0.524,0.409,0.0506,0.0146,0.0134,1.02
NCI-H1666,0.515,0.653,0.789,0.788,0.701,0.575,0.642,0.505,0.467,1.01,0.933,0.866,0.382,0.34,0.564,0.576,0.435,0.313,0.341,0.58
NCI-H1651,0.835,0.928,0.905,0.837,0.5,0.505,0.514,0.41,0.0953,0.689,1.04,0.333,0.146,0.139,0.296,0.197,0.136,0.104,0.102,0.807
NCI-H1755,0.958,0.978,0.994,1.11,0.473,0.477,0.424,0.377,0.385,0.291,0.416,0.298,0.283,0.327,0.603,0.578,0.328,0.237,0.253,1.02
NCI-H661,0.398,0.532,0.562,0.513,0.403,0.372,0.331,0.209,0.225,0.944,0.936,0.347,0.296,0.257,0.263,0.224,0.216,0.198,0.206,0.473
HARA,0.762,0.806,0.578,0.713,0.265,0.346,0.295,0.151,0.136,0.784,1.46,0.148,0.0637,0.0578,0.511,0.55,0.376,0.049,0.0462,0.722
NCI-H23,1.03,1.27,,0.985,0.465,0.528,0.304,0.146,0.111,0.231,0.212,0.182,0.225,0.236,0.769,0.781,0.415,0.115,0.122,1.12
